The text below walks through data of publication PMC3767132 (Organic & biomolecular chemistry, 2012).

The structures appear in SMILES notation. Read-outs that look alike come from different tables or passages of the source.

For one test, the system named is HUVEC. Nature of the test: HUVEC proliferation assay using [3H]-thymidine incorporation. The class given is cell-based, human. In general terms: Dividing cells build labelled thymidine or BrdU into new DNA.
The target in a further test is hMetAP1 (Homo sapiens, UniProt P53582). Nature of the test: human MetAP1 enzyme assay. It is filed as biochemical. To be noted: for b = bottom value in the dose-response curve, hMetAP1: noted only when above 15%.
The target of a further test is hMetAP2 (Homo sapiens, UniProt P50579). Kind of test: human MetAP2 enzyme assay. It is filed as biochemical. The settings on record: for inhibition at 10 µM: read-out: inhibition of MetAP2 activity in HTS; for b = bottom value in the dose-response curve, hMetAP2: noted only when above 15%.
Where [1] appears, read: read-out: IC50 HUVEC, proliferation, 3H-T uptake.
[2] abbreviates: read-out: IC50 hMetAP1, enzyme assay, 10 μM Co2+.
Where [3] appears, read: read-out: IC50 hMetAP2, enzyme assay, 10 μM Mn2+.
Setting [4] is: Homo sapiens, HUVEC, read-out: IC50 HUVEC.
[5] abbreviates: IC50 hMetAP1, enzyme assay, 10 μM Co2+.
The mark [6] stands for this setting: Homo sapiens, HUVEC, read-out: IC50 HUVEC, proliferation, 3H-T uptake.

Sequence of hMetAP2 (P50579 whole entry): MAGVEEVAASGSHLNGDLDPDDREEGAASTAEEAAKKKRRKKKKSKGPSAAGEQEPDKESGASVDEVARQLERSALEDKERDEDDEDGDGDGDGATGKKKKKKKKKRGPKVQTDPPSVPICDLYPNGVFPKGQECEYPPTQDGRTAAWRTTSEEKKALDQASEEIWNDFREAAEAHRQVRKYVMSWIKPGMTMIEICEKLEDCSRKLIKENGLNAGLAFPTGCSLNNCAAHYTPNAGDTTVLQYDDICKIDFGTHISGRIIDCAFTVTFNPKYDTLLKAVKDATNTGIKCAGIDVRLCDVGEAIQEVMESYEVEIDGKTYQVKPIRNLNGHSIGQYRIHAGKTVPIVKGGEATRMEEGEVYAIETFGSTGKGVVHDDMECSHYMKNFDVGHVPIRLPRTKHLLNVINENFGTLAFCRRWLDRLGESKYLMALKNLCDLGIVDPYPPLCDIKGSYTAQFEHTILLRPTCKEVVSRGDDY

In the case of `O=[N+]([O-])c1cc(Cl)c2cccnc2c1O` [Entry 44], the IC50 in the test on HUVEC (setting [1]) was 7.73 ± 0.77 µM; on hMetAP1 (setting [2]) it was more than 15 µM; on hMetAP2 (setting [3]), more than 15 µM.
In the case of `Oc1c(Br)cc(Br)c2cccnc12` [Entry 10], the values for the IC50 in the test with HUVEC (setting [1]), at hMetAP1 (setting [2]) and at hMetAP2 (setting [3]) were 2.53 ± 0.71 µM, more than 15 µM and more than 15 µM, respectively.
As for `Oc1ccc(Cl)c2cccnc12` [Entry 4, Cloxyquin, reference compound], the IC50 in the test on HUVEC (setting [4]) was 1.41 ± 0.1 µM.
Consider `O=C(Nc1ccc(O)c2ncccc12)N1CCOCC1` [Entry 42, N-(8-Hydroxyquinolin-5-yl)morpholine-4-carboxamide], for which the IC50 was 1.88 ± 0.3 µM with HUVEC (setting [4]), more than 40 µM against hMetAP1 (setting [5]) and more than 40 µM on hMetAP2.
On to `O=S(=O)(O)c1ccc(O)c2ncccc12` [Entry 6], for which the IC50 in the test with HUVEC (setting [1]) is more than 50 µM; at hMetAP2 (setting [3]) it was more than 15 µM.
`COc1ccc(CN(Cc2ccc(OC)cc2)c2ccc(O)c3ncccc23)cc1` [Entry 37, 5-(N,N-Di[(4-methoxy)benzyl])amino-8-hydroxyquinoline]: the IC50 was 0.551 ± 0.08 µM in the test with HUVEC (setting [4]), 1.46 ± 0.3 µM on hMetAP1 (setting [5]) and more than 40 µM on hMetAP2. The “b = bottom value in the dose-response curve, hMetAP1” value on hMetAP1 is reported as 32%.
Consider `CCOP(=O)(OCC)Oc1ccc(Cl)c2cccnc12` [Entry 26, 5-chloroquinolin-8-yl diethyl phosphate], for which the IC50 was more than 50 µM in the test with HUVEC (setting [4]), more than 15 µM at hMetAP1 (setting [5]) and more than 15 µM against hMetAP2.
`Cc1ccc2cccc(O)c2n1` [Entry 2]: the results for the IC50 with HUVEC (setting [1]), at hMetAP1 (setting [2]) and at hMetAP2 (setting [3]) were 2.7 ± 0.61 µM, more than 15 µM and more than 15 µM, respectively.
The term inhibition denotes the share of the control response that was lost under treatment. Regarding `C=CCOc1ccc(Cl)c2cccnc12` [Entry 27, 5-chloro-8-allyloxyquinoline], the IC50 in the test with HUVEC (setting [4]) was more than 50 µM; against hMetAP1 (setting [5]), more than 15 µM; on hMetAP2 it was more than 50 µM. Also, at hMetAP2, the inhibition at 10 µM is more than 90%.
As for `Oc1c(C(Nc2nccs2)c2ccco2)cc(Cl)c2cccnc12` (stereo not shown) [Entry 19, 5-Chloro-7-(furan-2-yl(thiazole-2-ylamino)methyl)quinolin-8-ol], the figures for the IC50 with HUVEC (setting [4]), against hMetAP1 (setting [5]) and on hMetAP2 were 2.53 ± 0.13 µM, more than 50 µM and 2.75 ± 0.4 µM, respectively.
As for `CCOC(=O)COc1ccc([N+](=O)[O-])c2cccnc12` [Entry 49, ethyl 2-(5-nitroquinolin-8-yloxy)acetate], the figures for the IC50 in the test with HUVEC (setting [4]), against hMetAP1 (setting [5]) and against hMetAP2 were 7.3 ± 0.81 µM, more than 15 µM and more than 15 µM, respectively.
Take `C=CCOc1c(Cl)cc(Cl)c2cccnc12` [Entry 28, 8-(Allyloxy)-5,7-dichloroquinoline]: the IC50 in the test on HUVEC (setting [4]) is 2.32 ± 0.23 µM; at hMetAP1 (setting [5]), more than 15 µM; against hMetAP2, more than 15 µM.
On to `O=C(Nc1ccccc1)Oc1ccc(Cl)c2cccnc12` [Entry 22, 5-chloroquinolin-8-yl phenylcarbamate], for which the IC50 was 1.2 µM with HUVEC (setting [6]), 1.21 ± 0.51 µM with HUVEC (setting [1]), more than 15 µM at hMetAP1 (setting [5]) and 5.26 ± 0.6 µM on hMetAP2. At hMetAP2, the “b = bottom value in the dose-response curve, hMetAP2” value amounted to 24%. Moreover, the inhibition at 10 µM at hMetAP2 was more than 90%.
Consider `N#Cc1ccc2cccc(O)c2n1` [Entry 3], for which the IC50 is more than 50 µM in the test with HUVEC (setting [1]), more than 15 µM at hMetAP1 (setting [2]) and more than 15 µM on hMetAP2 (setting [3]).
Regarding `Oc1c(Br)cc(Cl)c2cccnc12` [Entry 8], the IC50 is 2.21 ± 0.6 µM with HUVEC (setting [1]), more than 15 µM on hMetAP1 (setting [2]) and more than 15 µM on hMetAP2 (setting [3]).
Regarding `Nc1cccc2cccnc12` [Entry 31, 8-aminoquinoline], the IC50 in the test on HUVEC (setting [6]) was more than 50 µM; against hMetAP1 (setting [5]), more than 15 µM; against hMetAP2 it was more than 15 µM.
With `O=C(Nc1cc(F)cc(F)c1)Oc1ccc(Cl)c2cccnc12` [Entry 23, 5-Chloroquinolin-8-yl 3,5-difluorophenylcarbamate], the IC50 in the test with HUVEC (setting [6]) is 2.2 ± 0.1 µM; against hMetAP1 (setting [5]), more than 15 µM; against hMetAP2, more than 15 µM.
Regarding `NC(=O)COc1ccc([N+](=O)[O-])c2cccnc12` [Entry 50, 2-(5-nitroquinolin-8-yloxy)acetamide], the IC50 in the test with HUVEC (setting [4]) was 6.3 ± 1.4 µM; against hMetAP1 (setting [5]), more than 15 µM; on hMetAP2, 1.06 ± 0.5 µM.
For the molecule `Cc1ccc2c([N+](=O)[O-])cc([N+](=O)[O-])c(O)c2n1` [Entry 43], the IC50 in the test with HUVEC (setting [1]) is 15.7 ± 1.3 µM; on hMetAP1 (setting [2]) it was 17.3 ± 1.7 µM; at hMetAP2 (setting [3]), more than 15 µM.
On to `C=CCOc1cccc2ccc(C#N)nc12` [Entry 30, 8-(Allyloxy)quinoline-2-carbonitrile], for which the IC50 with HUVEC (setting [4]) was more than 50 µM; on hMetAP1 (setting [5]) it was more than 15 µM; at hMetAP2, more than 15 µM.
As to `O=C(Nc1ccc(F)cc1)Oc1c(Cl)cc(Cl)c2cccnc12` [Entry 25, 5,7-Dichloroquinolin-8-yl 4-fluorophenylcarbamate], the IC50 in the test on HUVEC (setting [6]) was 3.58 ± 0.9 µM; against hMetAP1 (setting [5]) it was more than 15 µM; on hMetAP2, more than 15 µM.
With `Oc1c(I)cc(I)c2cccnc12` [Entry 11], the IC50 with HUVEC (setting [1]) is 2.62 ± 0.08 µM; at hMetAP1 (setting [2]), more than 15 µM; at hMetAP2 (setting [3]), more than 15 µM.
`CCN(CC)c1ccc(O)c2ncccc12` [Entry 35, 5-(N,N-Diethyl)amino-8-hydroxyquinoline]: the IC50 with HUVEC (setting [4]) stood at 0.329 ± 0.17 µM; against hMetAP1 (setting [5]), 7.21 ± 1.3 µM; on hMetAP2 it was 20.1 µM. Also, the “b = bottom value in the dose-response curve, hMetAP1” value on hMetAP1 worked out at 29%. For the same molecule, the “b = bottom value in the dose-response curve, hMetAP2” value on hMetAP2 is reported as 25%.
Consider `CCCCCCN(CCCCCC)c1ccc(O)c2ncccc12` [Entry 36, 5-(N,N-Di-n-hexyl)amino-8-hydroxyquinoline], for which the IC50 with HUVEC (setting [4]) was 0.789 ± 0.21 µM; on hMetAP1 (setting [5]), more than 40 µM; at hMetAP2, more than 40 µM.
Consider `Oc1c(CN2CCOCC2)ccc2cccnc12` [Entry 12], for which the figures for the IC50 in the test with HUVEC (setting [1]), on hMetAP1 (setting [2]) and at hMetAP2 (setting [3]) were more than 20 µM, more than 50 µM and more than 15 µM, respectively.
Take `Oc1c(I)cc(Cl)c2cccnc12` [Entry 7, Clioquinol, reference compound]: the IC50 was 2.42 ± 0.5 µM in the test on HUVEC (setting [4]); more than 50 µM at hMetAP1 (IC50 MetAP1 with Co2+, Co2+ metalloform, data not shown); more than 15 µM on hMetAP1 (setting [5]); 2.39 ± 0.31 µM against hMetAP2.
`OCCOc1ccc(Cl)c2cccnc12` [Entry 29]: the IC50 in the test with HUVEC (setting [1]) is 2.4 ± 0.3 µM; at hMetAP1 (setting [2]), more than 15 µM; on hMetAP2 (setting [3]), more than 15 µM.
As to `CC(=O)Nc1ccc(O)c2ncccc12` [Entry 38], the “b = bottom value in the dose-response curve, HUVEC” value with HUVEC (3H-T uptake, noted only when above 15%) was found to be 28%. Moreover, the figures for the IC50 in the test on HUVEC (setting [1]), at hMetAP1 (setting [2]) and on hMetAP2 (setting [3]) were 10.2 ± 1.1 µM, more than 40 µM and more than 40 µM, respectively.
For `Oc1c(Cl)cc(Cl)c2cccnc12` [Entry 9], the figures for the IC50 with HUVEC (setting [1]), at hMetAP1 (setting [2]) and at hMetAP2 (setting [3]) were 3.64 ± 0.53 µM, more than 15 µM and more than 15 µM, respectively.
`O=C(NCCCl)Oc1c(Cl)cc(Cl)c2cccnc12` [Entry 21, 5,7-Dichloroquinolin-8-yl 2-chloroethylcarbamate]: the IC50 with HUVEC (setting [6]) was 2.62 ± 0.5 µM; on hMetAP1 (setting [5]), more than 15 µM.
`CCCCCC(=O)Nc1ccc(O)c2ncccc12` [Entry 39, N-(8-Hydroxyquinolin-5-yl)hexanamide]: the IC50 in the test on HUVEC (setting [4]) is 8.45 ± 0.91 µM; on hMetAP1 (setting [5]) it was more than 40 µM; at hMetAP2 it was more than 40 µM.
With `CC(C)S(=O)(=O)Nc1ccc(O)c2ncccc12` [Entry 41, N-(8-Hydroxyquinolin-5-yl)propane-2-sulfonamide], the figures for the IC50 in the test on HUVEC (setting [4]), at hMetAP1 (setting [5]) and against hMetAP2 were 12.9 ± 0.13 µM, more than 40 µM and more than 40 µM, respectively.
As for `Oc1cccc2cccnc12` [Entry 1, 8-hydroxyquinoline], the IC50 was 6.21 ± 1.1 µM in the test on HUVEC (setting [4]) and more than 15 µM against hMetAP1 (IC50 hMetAP1).
